pIC50: −log10 of the molar value. Counter-ions that a name gives are not always drawn. Like-named read-outs stand apart in the source and are kept apart here.
Assays:
[1] = target: T1, gluthathione reductase (GR) (Homo sapiens, UniProt P00390); assay: Inhibition of recombinant GR (GSSG assay); format: biochemical
T1 sequence (P00390 44-522): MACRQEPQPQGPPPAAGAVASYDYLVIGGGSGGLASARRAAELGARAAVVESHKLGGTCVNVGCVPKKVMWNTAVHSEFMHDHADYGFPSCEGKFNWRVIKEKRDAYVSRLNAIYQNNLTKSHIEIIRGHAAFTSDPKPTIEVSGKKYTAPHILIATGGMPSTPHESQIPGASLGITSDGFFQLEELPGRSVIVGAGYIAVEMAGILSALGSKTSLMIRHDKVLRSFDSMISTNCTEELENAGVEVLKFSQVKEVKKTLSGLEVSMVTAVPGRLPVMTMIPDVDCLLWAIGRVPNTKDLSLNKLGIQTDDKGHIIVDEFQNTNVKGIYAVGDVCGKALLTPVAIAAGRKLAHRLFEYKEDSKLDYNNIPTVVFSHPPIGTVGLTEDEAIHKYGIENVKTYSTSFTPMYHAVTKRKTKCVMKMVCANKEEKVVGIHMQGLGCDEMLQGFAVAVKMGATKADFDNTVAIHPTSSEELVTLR
Experimental: (§1) Small molecule inhibition of recombinant thioredoxin reductase 1 (TrxR1) and gluthathione reductase (GR) was examined in 96-well plate format. 15 nM TrxR1 was incubated in the presence of 250 μM NADPH, 0.1 mg/ml BSA, and various concentrations of the compound of Example 1 (1% DMSO final) in 50 mM Tris (pH 7.5) and 2 mM EDTA buffer for 15 minutes. Following the incubation period, 2.5 mM DTNB was added to each well and the change in O.D. at 412 nm was followed. Percent activity was determined using DMSO vehicle and no TrxR1 (blank) controls. 2 nM GR was incubated in the presence of 250 μM NADPH, 0.1 mg/ml BSA, and various concentrations of compounds (1% DMSO final) in 50 mM Tris (pH 7.5) and 2 mM EDTA buffer for 15 minutes. Following the incubation period, 1 mM GSSG was added to each well and the change in O.D. at 340 nm was followed. Percent activity was determined using DMSO vehicle and no GR (blank) controls.

[2] = target: T2, recombinant thioredoxin reductase 1 (TrxR1) (Homo sapiens, UniProt Q16881); assay: Inhibition of recombinant TrxR1 (DTNB assay); format: biochemical
T2 sequence (Q16881 1-649): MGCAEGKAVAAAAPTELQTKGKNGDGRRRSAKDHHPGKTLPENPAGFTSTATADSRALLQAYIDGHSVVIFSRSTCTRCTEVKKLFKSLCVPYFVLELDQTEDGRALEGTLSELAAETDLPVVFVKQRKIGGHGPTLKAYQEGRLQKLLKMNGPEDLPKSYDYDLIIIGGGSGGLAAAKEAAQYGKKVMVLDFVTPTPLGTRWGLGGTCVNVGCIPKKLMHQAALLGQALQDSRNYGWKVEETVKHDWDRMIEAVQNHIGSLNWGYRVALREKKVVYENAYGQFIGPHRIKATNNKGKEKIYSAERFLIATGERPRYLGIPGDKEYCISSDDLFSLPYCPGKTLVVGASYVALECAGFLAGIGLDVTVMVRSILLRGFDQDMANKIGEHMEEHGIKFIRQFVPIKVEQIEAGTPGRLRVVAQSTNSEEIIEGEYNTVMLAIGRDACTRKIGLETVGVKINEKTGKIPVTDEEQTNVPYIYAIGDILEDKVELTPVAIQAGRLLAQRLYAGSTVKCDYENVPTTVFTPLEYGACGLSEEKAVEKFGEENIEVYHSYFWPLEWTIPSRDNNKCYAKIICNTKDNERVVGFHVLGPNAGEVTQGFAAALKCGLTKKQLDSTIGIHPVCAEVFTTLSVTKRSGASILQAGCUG
Experimental: as §1

[3] = Biological Example 4, assays of Biological Example 1
[4] = Biological Example 4, assays of Biological Example 1, read-out: TrxR Inhibition
[5] = Biological Example 1, 2 nM GR, 250 μM NADPH, 15 minutes incubation
[6] = Biological Example 1, 15 nM TrxR1, 250 μM NADPH, 15 minutes incubation, read-out: TrxR inhibition

SMILES	pIC50 [1, 3]	pIC50 [2, 4]	pIC50 [1, 5]	pIC50 [2, 6]
CC1=CC(=O)[C@@H]2C3C(=O)N(C4CCCCC4)C(=O)C3[C@H]1N2Cc1ccccc1 (stereo partly drawn) [Example 13, endo-11-Benzyl-4-cyclohexyl-10-methyl-4,11-diazatricyclo[5.3.1.0^2,6]undec-9-ene-3,5,8-trione Trifluoroacetate]	< 4.00	5.11		
O=C1C=C[C@H]2[C@@H]3C(=O)N(c4ccccc4)C(=O)[C@@H]3[C@@H]1N2CCc1ccccc1 (relative stereo) [Example 7, exo-4-Phenyl-11-(2-phenylethyl)-4,11-diazatricyclo[5.3.1.0^2,6]undec-9-ene-3,5,8-trione Trifluoroacetate]	< 4.00	5.71	< 4.00	5.76
O=C1C=CC2C3C(=O)N(c4ccccc4)C(=O)C3C1N2Cc1ccc(Br)cc1 (stereo not drawn) [Example 6, 11-(4-Bromobenzyl)-4-phenyl-4,11-diazatricyclo[5.3.1.0^2,6]undec-9-ene-3,5,8-trione Trifluoroacetate]	4.50	6.24	4.21	5.67
Cc1cccc(CN2[C@@H]3C(=O)C=C[C@H]2[C@@H]2C(=O)N(c4cccc(O)c4)C(=O)[C@@H]23)c1 (relative stereo) [Example 58, exo-4-(3-Hydroxyphenyl)-11-(3-methylbenzyl)-4,11-diazatricyclo[5.3.1.0^2,6]undec-9-ene-3,5,8-trione Trifluoroacetate]	< 4.00	5.89	< 4.00	6.12
Cc1cccc(CN2[C@@H]3C(=O)C=C[C@H]2[C@@H]2C(=O)N(c4ccc(O)cc4)C(=O)[C@@H]23)c1 (relative stereo) [Example 55, exo-4-(4-Hydroxyphenyl)-11-(3-methylbenzyl)-4,11-diazatricyclo[5.3.1.0^2,6]-undec-9-ene-3,5,8-trione Trifluoroacetate]	< 4.00	5.79		
O=C1C=C[C@H]2[C@@H]3C(=O)N(c4ccccc4)C(=O)[C@@H]3[C@@H]1N2Cc1cc(F)ccc1F (relative stereo) [Example 27, exo-11-(2,5-Difluorobenzyl)-4-phenyl-4,11-diazatricyclo[5.3.1.0^2,6]undec-9-ene-3,5,8-trione Trifluoroacetate]	< 4.00	5.87		
Cc1cccc(CN2[C@@H]3C(=O)C=C[C@H]2[C@@H]2C(=O)N(c4c(C)cccc4C)C(=O)[C@@H]23)c1 (relative stereo) [Example 65, exo 4-(2,6-Dimethylphenyl)-11-(3-methylbenzyl)-4,11-diazatricyclo-[5.3.1.0^2,6]undec-9-ene-3,5,8-trione Trifluoroacetate]	< 4.00	5.28	< 4.00	5.34
CN1C(=O)[C@@H]2[C@H](C1=O)[C@H]1C(=O)C=C[C@@H]2N1Cc1ccccc1 (relative stereo) [Example 51, exo-11-Benzyl-4-methyl-4,11-diazatricyclo[5.3.1.0^2,6]undec-9-ene-3,5,8-trione Trifluoroacetate]	< 4.00	5.34		
CC(C)(C)N1C(=O)[C@@H]2[C@H](C1=O)[C@H]1C(=O)C=C[C@@H]2N1Cc1ccccc1 (relative stereo) [Example 17, exo-11-Benzyl-4-(tert-butyl)-4,11-diazatricyclo[5.3.1.0^2,6]undec-9-ene-3,5,8-trione Trifluoroacetate]	< 4.00	5.79		
O=C1C=C[C@H]2C3C(=O)N(c4ccccc4)C(=O)C3[C@@H]1N2Cc1cccc(F)c1F (mixture of isomers) [Example 30, endo-11-(2,3-Difluorobenzyl)-4-phenyl-4,11-diazatricyclo[5.3.1.0^2,6]undec-9-ene-3,5,8-trione Trifluoroacetate]	4.60	5.73		
CCN1C(=O)[C@@H]2[C@H](C1=O)[C@H]1C(=O)C=C[C@@H]2N1C (relative stereo) [Example 61, exo-4-Ethyl-11-methyl-4,11-diazatricyclo[5.3.1.0^2,6]undec-9-ene-3,5,8-trione Trifluoroacetate]	< 4.00	4.63		
Cc1cccc(CN2[C@@H]3C(=O)C=C[C@H]2[C@@H]2C(=O)N(c4cccc(N5CCCCC5)c4)C(=O)[C@@H]23)c1 (relative stereo) [Example 63, exo-11-(3-Methylbenzyl)-4-(3-(piperidin-1-yl)phenyl)-4,11-diazatricyclo-[5.3.1.0^2,6]undec-9-ene-3,5,8-trione Trifluoroacetate]	< 4.00	5.80		
O=C1C=CC2C3C(=O)N(c4ccccc4)C(=O)C3C1N2Cc1cccc(F)c1F (stereo not drawn) [Example 31, exo-11-(2,3-Difluorobenzyl)-4-phenyl-4,11-diazatricyclo[5.3.1.0^2,6]undec-9-ene-3,5,8-trione Trifluoroacetate]	< 4.00	5.97		
O=C1C=C[C@H]2C3C(=O)N(c4ccccc4)C(=O)C3[C@@H]1N2Cc1cc(F)ccc1F (mixture of isomers) [Example 26, endo 11-(2,5-Difluorobenzyl)-4-phenyl-4,11-diazatricyclo[5.3.1.0^2,6]undec-9-ene-3,5,8-trione Trifluoroacetate]	4.52	5.60		
COc1cccc(CN2[C@@H]3C(=O)C=C[C@H]2[C@@H]2C(=O)N(c4ccccc4)C(=O)[C@@H]23)c1 (relative stereo) [Example 22, exo-11-(3-Methoxybenzyl)-4-phenyl-4,11-diazatricyclo[5.3.1.0^2,6]undec-9-ene-3,5,8-trione Trifluoroacetate]	4.12	5.91	< 4.00	5.71
CS(=O)(=O)c1cccc(CN2[C@@H]3C(=O)C=C[C@H]2[C@@H]2C(=O)N(c4ccccc4)C(=O)[C@@H]23)c1 (relative stereo) [Example 68, exo-11-(3-(Methylsulfonyl)benzyl)-4-phenyl-4,11-diazatricyclo[5.3.1.0^2,6]-undec-9-ene-3,5,8-trione Trifluoroacetate]	< 4.00	5.65	< 4.00	5.73
CN1C(=O)C2C(C1=O)C1C(=O)C=CC2N1C (stereo not drawn) [Example 60, exo-4,11-Dimethyl-4,11-diazatricyclo[5.3.1.0^2,6]undec-9-ene-3,5,8-trione Trifluoroacetate]	< 4.00	4.81		
Cc1cccc(CN2[C@@H]3C(=O)C=C[C@H]2[C@@H]2C(=O)N(c4ccccc4O)C(=O)[C@@H]23)c1 (relative stereo) [Example 56, exo-4-(2-Hydroxyphenyl)-11-(3-methylbenzyl)-4,11-diazatricyclo[5.3.1.0^2,6]-undec-9-ene-3,5,8-trione Trifluoroacetate]	< 4.00	5.84		
CCN1C(=O)[C@@H]2[C@H](C1=O)[C@H]1C(=O)C=C[C@@H]2N1Cc1cccc(C)c1 (relative stereo) [Example 49, exo-4-Ethyl-11-(3-methylbenzyl)-4,11-diazatricyclo[5.3.1.0^2,6]undec-9-ene-3,5,8-trione Trifluoroacetate]	< 4.00	5.60		
O=C1C=C[C@H]2C3C(=O)N(c4ccccc4)C(=O)C3[C@@H]1N2Cc1cccc(F)c1 (stereo partly drawn) [Example 28]	4.53	5.57		
O=C1C=CC2C3C(=O)N(c4ccccc4)C(=O)C3C1N2Cc1cccc(Br)c1 (stereo not drawn) [Example 34, exo-11-(3-Bromobenzyl)-4-phenyl-4,11-diazatricyclo[5.3.1.0^2,6]undec-9-ene-3,5,8-trione Trifluoroacetate]	< 4.00	5.91		

— US10881653B2, “Tricyclic compounds and their use in the treatment of cancer” (The United States of America, as represented by the …, priority 2015, dated 2021)
